According to patent publication US9321788B2, “Tricyclic antibiotics” (BASILEA PHARMACEUTICA AG, priority 2011, dated 2016):

Key:
[1] = tested on: Streptococcus pneumoniae ATCC49619; test: Antimicrobial activity assay (MIC, broth microdilution, CAMHB with 5% horse serum); type: cell-based
Procedure: (§1) Antimicrobial Activity Assay
(§2) The antibacterial activity of compounds is determined by the minimal inhibitory concentration (MIC) method. MICs for all bacteria except pneumococci and Haemophilus influenzae are obtained by broth microdilution with cation-adjusted Mueller-Hinton broth (CAMHB; BBL), according to CLSI guidelines (National Committee for Clinical Laboratory Standards. 2003. Methods for dilution antimicrobial susceptibility tests for bacteria that grow aerobically, 5th ed.; a approved standard M7-A6. National Committee for Clinical Laboratory Standards, Wayne, Pa.), with the following modifications: (i) for pneumococci CAMHB is supplemented with 5% (^v/v) horse serum; (ii) for Haemophilus influenzae CAMHB is supplemented with 5% (^v/v) Fildes enrichment (BBL) (Pankuch, G. A., Hoellman, D. B., Lin, G., Bajaksouzian, S., Jacobs, M. R., and Appelbaum, P. C. 1998. Activity of HMR 3647 compared to those of five agents against Haemophilus influenzae and Moraxella catarrhalis by MIC determination and time-kill assay. Antimicrob. Agents Chemother. 42:3032-3034). Microtiter plates are incubated at 35° C. in ambient air for 20 to 24 h, then inspected using an illuminated microtiter plate reader fitted with a magnifying mirror (MIC 2000; Cooke Laboratory Products, Alexandria, Va.). Compounds of the present invention are tested against several bacteria strains comprising some Acinetobacter baumannii, Enterococcus faecalis, Enterococcus faecium, Escherichia coli, Haemophilus influenzae, Klebsiella pneumoniae, Pseudomonas aeruginosa, Staphylococcus aureus, Staphylococcus epidermidis, Streptococcus pyogenes; Enterobacter cloacae and Streptococcus pneumoniae.

[2] = tested on: Escherichia coli ATCC25922; test: Antimicrobial activity assay (MIC, broth microdilution); type: cell-based
Procedure: as §1
as §2, with “Compounds of the present invention are tested against several bacteria strains comprising some Acinetobacter baumannii, Enterococcus faecalis, Enterococcus faecium, Escherichia coli, Haemophilus influenzae, Klebsiella pneumoniae, Pseudomonas aeruginosa, Staphylococcus aureus, Staphylococcus epidermidis, Streptococcus pyogenes; Enterobacter cloacae and Streptococcus pneumoniae.” left out

Row | MIC [1] | MIC [2] | SMILES
1 | ≤ 8 µg/mL | – | COc1ccc2ncc3c(c2c1)CC(CN1CCC(NCc2ccc4c(c2)NC(=O)CS4)CC1)CO3 (stereo not drawn) [Example 34, 6-{[1-(6-methoxy-3,4-dihydro-2H-1-oxa-9-aza-phenanthren-3-ylmethyl)-piperidin-4-ylamino]-methyl}-4H-benzo[1,4]thiazin-3-one]
2 | ≤ 8 µg/mL | – | COc1ccc2ncc3c(c2c1)CC(C(O)[C@H]1CC[C@H](NC(=O)c2ccc4c(c2)NC(=O)CS4)CC1)O3 (relative stereo) [Example 59, 3-oxo-3,4-dihydro-2H-benzo[1,4]thiazine-6-carboxylic acid {trans-4-[hydroxy-(8-methoxy-1,2-dihydro-furo[2,3-c]quinolin-2-yl)-methyl]-cyclohexyl}-amide]
3 | ≤ 8 µg/mL | – | COc1ccc2ncc3c(c2c1)OC(CN1CC(NC(=O)c2ccc4c(c2)NC(=O)CS4)C1)C3 (stereo not drawn) [Example 39, 3-oxo-3,4-dihydro-2H-benzo[1,4]thiazine-6-carboxylic acid [1-(8-methoxy-2,3-dihydro-furo[3,2-c]quinolin-2-ylmethyl)-azetidin-3-yl]-amide]
4 | ≤ 8 µg/mL | – | COc1ccc2ncc3c(c2n1)CC(CN1CCC(NC(=O)c2ccc4c(c2)NC(=O)CS4)CC1)O3 (stereo not drawn) [Example 54, 3-oxo-3,4-dihydro-2H-benzo[1,4]thiazine-6-carboxylic acid [1-(8-methoxy-1,2-dihydro-3-oxa-5,9-diaza-cyclopenta[a]naphthalen-2-ylmethyl)-piperidin-4-yl]-amide]
5 | ≤ 8 µg/mL | – | COc1ccc2ncc3c(c2c1F)CC(CN1CCC(NC(=O)c2ccc4c(c2)NC(=O)CS4)CC1)CO3 (stereo not drawn) [Example 45, 3-oxo-3,4-dihydro-2H-benzo[1,4]thiazine-6-carboxylic acid [1-(5-fluoro-6-methoxy-3,4-dihydro-2H-1-oxa-9-aza-phenanthren-3-ylmethyl)-piperidin-4-yl]-amide]
6 | ≤ 8 µg/mL | – | COc1ccc2ncc3c(c2c1)CC(C[C@H]1CC[C@H](NC(=O)c2ccc4c(c2)NC(=O)CO4)CC1)CO3 (relative stereo) [Example 36, 3-oxo-3,4-dihydro-2H-benzo[1,4]oxazine-6-carboxylic acid [trans-4-(6-methoxy-3,4-dihydro-2H-1-oxa-9-aza-phenanthren-3-ylmethyl)-cyclohexyl]-amide]
7 | ≤ 8 µg/mL | – | COc1ccc2ncc3c(c2c1)CC(CN1CC(NC(=O)c2ccc4c(c2)NC(=O)CS4)C1)CS3 (stereo not drawn) [Example 49, 3-oxo-3,4-dihydro-2H-benzo[1,4]thiazine-6-carboxylic acid [1-(6-methoxy-3,4-dihydro-2H-1-thia-9-aza-phenanthren-3-ylmethyl)-azetidin-3-yl]-amide]
8 | ≤ 8 µg/mL | ≤ 8 µg/mL | COc1ccc2ncc3c(c2n1)CC(CN1CCC(NC(=O)c2ccc4c(c2)NC(=O)CS4)CC1)CO3 (stereo not drawn) [Example 1, 3-oxo-3,4-dihydro-2H-benzo[1,4]thiazine-6-carboxylic acid [1-(6-methoxy-3,4-dihydro-2H-1-oxa-5,9-diaza-phenanthren-3-ylmethyl)-piperidin-4-yl]-amide]
9 | ≤ 8 µg/mL | – | COc1ccc2ncc3c(c2c1)CC(CN1CC(NC(=O)c2ccc4c(c2)NC(=O)CS4)CC1CO)CS3 (stereo not drawn) [Example 51, 3-oxo-3,4-dihydro-2H-benzo[1,4]thiazine-6-carboxylic acid [5-hydroxymethyl-1-(6-methoxy-3,4-dihydro-2H-1-thia-9-aza-phenanthren-3-ylmethyl)-pyrrolidin-3-yl]-amide]
10 | ≤ 8 µg/mL | – | COc1ccc2ncc3c(c2c1)CC(CN1CCC(NC(=O)c2ccc4c(c2)NC(=O)CS4)CC1)O3 (stereo not drawn) [Example 55, 3-oxo-3,4-dihydro-2H-benzo[1,4]thiazine-6-carboxylic acid [1-(8-methoxy-1,2-dihydro-furo[2,3-c]quinolin-2-ylmethyl)-piperidin-4-yl]-amide]
11 | ≤ 8 µg/mL | – | COc1ccc2ncc3c(c2c1)CC(Cn1cc(NC(=O)c2ccc4c(c2)NC(=O)CS4)cn1)CO3 (stereo not drawn) [Example 31, 3-oxo-3,4-dihydro-2H-benzo[1,4]thiazine-6-carboxylic acid [1-(6-methoxy-3,4-dihydro-2H-1-oxa-9-aza-phenanthren-3-ylmethyl)-1H-pyrazol-4-yl]-amide]
